Assay [1] deals with RAF proto-oncogene serine/threonine-protein kinase (Homo sapiens, UniProt P04049, Y340D/Y341D). The assay can be described thus: (§1) Kinase Activity: The compounds prepared in Examples were tested for inhibitory activity against three subtypes of RAF, i.e., RAF1 Y340D Y341D (C-RAF), B-RAF normal type and B-RAF^V600E using Kinase Profiling Service (Invitrogen, U.S.) according to the manufacturer's instructions. The levels of enzymatic inhibition of the compounds were calculated as percent inhibition at various concentrations.
RAF proto-oncogene serine/threonine-protein kinase, sequence (P04049 whole entry Y340D/Y341D): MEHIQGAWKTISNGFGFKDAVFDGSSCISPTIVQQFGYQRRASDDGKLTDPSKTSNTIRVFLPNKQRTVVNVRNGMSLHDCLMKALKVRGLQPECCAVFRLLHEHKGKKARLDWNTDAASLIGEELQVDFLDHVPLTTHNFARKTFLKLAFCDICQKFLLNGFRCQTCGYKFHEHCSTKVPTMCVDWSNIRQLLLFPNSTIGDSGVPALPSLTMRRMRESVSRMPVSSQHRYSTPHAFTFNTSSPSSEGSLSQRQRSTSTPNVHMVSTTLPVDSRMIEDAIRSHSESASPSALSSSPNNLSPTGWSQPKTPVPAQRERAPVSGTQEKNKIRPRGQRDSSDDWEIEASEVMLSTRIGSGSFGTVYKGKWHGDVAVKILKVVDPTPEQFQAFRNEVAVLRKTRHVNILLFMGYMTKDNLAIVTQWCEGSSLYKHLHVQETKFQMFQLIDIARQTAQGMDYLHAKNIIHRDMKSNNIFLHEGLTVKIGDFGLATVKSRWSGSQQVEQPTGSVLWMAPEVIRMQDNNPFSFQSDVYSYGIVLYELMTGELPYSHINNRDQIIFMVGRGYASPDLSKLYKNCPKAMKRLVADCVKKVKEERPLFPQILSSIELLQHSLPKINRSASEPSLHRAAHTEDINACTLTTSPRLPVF

Assay [2] has as its target Serine/threonine-protein kinase B-raf (Homo sapiens, UniProt P15056). Described as §1.
In assay [3] the target is Serine/threonine-protein kinase B-raf (Homo sapiens, UniProt P15056, V600E). Described as §1.
Serine/threonine-protein kinase B-raf (Homo sapiens, UniProt P15056, V600E), sequence (P15056 2-766 V600E limits assumed): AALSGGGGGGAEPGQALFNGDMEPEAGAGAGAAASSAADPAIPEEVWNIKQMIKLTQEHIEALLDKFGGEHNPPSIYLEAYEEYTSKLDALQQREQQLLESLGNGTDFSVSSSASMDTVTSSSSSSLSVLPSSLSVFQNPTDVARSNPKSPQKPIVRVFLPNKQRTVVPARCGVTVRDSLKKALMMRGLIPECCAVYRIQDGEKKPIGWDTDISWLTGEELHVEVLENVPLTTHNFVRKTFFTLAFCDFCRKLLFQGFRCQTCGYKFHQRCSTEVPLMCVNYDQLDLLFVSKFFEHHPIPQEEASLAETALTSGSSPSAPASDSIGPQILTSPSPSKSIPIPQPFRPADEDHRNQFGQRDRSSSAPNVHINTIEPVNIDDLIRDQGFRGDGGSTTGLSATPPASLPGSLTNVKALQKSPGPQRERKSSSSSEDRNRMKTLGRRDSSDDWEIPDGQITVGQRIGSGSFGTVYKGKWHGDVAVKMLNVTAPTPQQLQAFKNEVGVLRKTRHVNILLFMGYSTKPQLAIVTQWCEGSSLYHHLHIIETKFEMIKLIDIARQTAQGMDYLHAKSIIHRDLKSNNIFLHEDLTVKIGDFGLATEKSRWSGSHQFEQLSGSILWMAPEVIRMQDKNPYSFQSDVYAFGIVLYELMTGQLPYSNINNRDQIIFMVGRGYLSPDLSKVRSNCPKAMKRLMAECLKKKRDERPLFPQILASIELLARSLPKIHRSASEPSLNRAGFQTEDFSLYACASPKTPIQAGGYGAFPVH
Assay [4] has as its target Macrophage colony-stimulating factor 1 receptor (Homo sapiens, UniProt P07333). The assay can be described thus: Kinase Activity: The compounds prepared in Examples were tested for inhibitory activity against FMS, DDR1 and DDR2 kinases using Kinase Screening and Profiling Service (Invitrogen, U.S.).

Serine/threonine-protein kinase B-raf (Homo sapiens, UniProt P15056), sequence (P15056 whole entry): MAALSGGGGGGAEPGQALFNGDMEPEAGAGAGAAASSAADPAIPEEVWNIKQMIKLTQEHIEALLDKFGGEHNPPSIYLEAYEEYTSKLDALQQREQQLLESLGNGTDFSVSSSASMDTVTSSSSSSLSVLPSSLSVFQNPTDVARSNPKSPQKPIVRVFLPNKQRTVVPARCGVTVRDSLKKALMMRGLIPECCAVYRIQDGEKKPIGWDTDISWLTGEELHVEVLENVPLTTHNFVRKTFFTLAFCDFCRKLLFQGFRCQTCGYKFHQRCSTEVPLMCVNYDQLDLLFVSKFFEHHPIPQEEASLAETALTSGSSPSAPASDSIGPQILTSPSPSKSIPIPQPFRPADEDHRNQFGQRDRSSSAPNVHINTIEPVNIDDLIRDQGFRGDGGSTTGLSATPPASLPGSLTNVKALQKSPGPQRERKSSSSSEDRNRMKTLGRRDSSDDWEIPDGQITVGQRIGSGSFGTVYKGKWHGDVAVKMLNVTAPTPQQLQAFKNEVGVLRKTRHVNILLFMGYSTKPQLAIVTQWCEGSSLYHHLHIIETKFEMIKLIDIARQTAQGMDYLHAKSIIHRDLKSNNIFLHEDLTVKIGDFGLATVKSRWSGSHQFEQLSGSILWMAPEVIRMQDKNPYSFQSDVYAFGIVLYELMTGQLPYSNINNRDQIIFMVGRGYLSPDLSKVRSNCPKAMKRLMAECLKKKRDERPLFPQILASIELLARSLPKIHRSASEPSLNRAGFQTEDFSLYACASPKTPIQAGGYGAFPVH
Macrophage colony-stimulating factor 1 receptor, sequence (P07333 whole entry): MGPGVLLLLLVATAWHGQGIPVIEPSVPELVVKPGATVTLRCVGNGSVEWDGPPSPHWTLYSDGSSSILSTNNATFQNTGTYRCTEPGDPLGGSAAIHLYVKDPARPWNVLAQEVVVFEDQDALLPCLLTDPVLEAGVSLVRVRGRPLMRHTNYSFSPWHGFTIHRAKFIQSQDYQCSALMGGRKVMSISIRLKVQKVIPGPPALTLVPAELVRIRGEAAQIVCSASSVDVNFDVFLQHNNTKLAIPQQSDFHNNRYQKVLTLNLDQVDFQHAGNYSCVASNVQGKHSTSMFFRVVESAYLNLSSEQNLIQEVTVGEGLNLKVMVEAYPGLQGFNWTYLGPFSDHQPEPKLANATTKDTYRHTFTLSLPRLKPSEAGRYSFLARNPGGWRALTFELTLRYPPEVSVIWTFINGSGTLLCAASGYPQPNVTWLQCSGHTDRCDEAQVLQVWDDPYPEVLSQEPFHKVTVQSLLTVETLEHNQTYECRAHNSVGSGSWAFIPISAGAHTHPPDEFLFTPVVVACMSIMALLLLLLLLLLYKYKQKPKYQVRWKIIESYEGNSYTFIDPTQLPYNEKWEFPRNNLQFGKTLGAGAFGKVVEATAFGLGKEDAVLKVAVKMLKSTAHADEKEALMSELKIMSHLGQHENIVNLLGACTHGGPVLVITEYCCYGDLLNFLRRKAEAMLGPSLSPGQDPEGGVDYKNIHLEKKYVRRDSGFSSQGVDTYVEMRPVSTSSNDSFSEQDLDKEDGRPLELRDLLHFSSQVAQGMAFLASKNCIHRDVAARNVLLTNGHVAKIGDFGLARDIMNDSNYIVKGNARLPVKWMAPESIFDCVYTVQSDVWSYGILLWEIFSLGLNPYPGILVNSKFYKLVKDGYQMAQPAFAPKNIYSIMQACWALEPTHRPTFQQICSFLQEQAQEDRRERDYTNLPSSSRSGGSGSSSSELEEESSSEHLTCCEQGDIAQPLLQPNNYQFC

Take `Cc1ccc2c(Nc3cccc(Cl)c3)nccc2c1NC(=O)c1csc2c(N)ncnc12`: the IC50 (usually the concentration that inhibits the measured activity by half) in assay [1] is 0.005 µM; in assay [2] it was 0.066 µM; in assay [3] it was 0.009 µM; in assay [4], 0.057 µM.

(Values after ChEMBL document CHEMBL3886288, “Thieno[3,2-D]pyrimidine derivatives having inhibitory activity for protein kinases” (2015).)
